Data taken from patent US6211155A, “Peptide conjugates derived from thymic hormones, their use as a medicament and compositions containing them” (Institut European de Biologie Cellulaire, priority 1995, dated 2001).
Where no end group is shown, it is not given here.

Tests used:
[1] = tested on: Thy 1.2+ thymocytes of the epidermis; assay: Thy 1.2+ epidermal cell density after topical application to mouse ear (immunofluorescence); format: in vivo, C57-BL/6 mice; conditions: for Number of Thy 1.2+ cells per mm^2 of epidermis, batch 1 / Number of Thy 1.2+ cells per mm^2 of epidermis, batch 2 / Number of Thy 1.2+ cells per mm^2 of epidermis, batch 3 / Number of Thy 1.2+ cells per mm^2 of epidermis, batch 4 / Number of Thy 1.2+ cells per mm^2 of epidermis, Mean: C 57 BL/6 mice; for Number of Thy 1.2+ cells per mm^2 of epidermis, Mean: 4 batches; for Thy 1.2+ cells % T: relative to PG controls
Description: (§1) I--Experimental Samples--Code: ETF
(§2) In solution in propylene glycol at a concentration of 10^-5 M/ml
(§3) 5 to 7-week-old male C 57-BL/6 mice, which are divided into groups of 4 per cage, and which have free access to water and food and which are subjected to a photoperiod of 12 h of light per 24 hours, are given a topical application of the peptide in propylene glycol (50 μl vol) on the dorsal surface of the ear daily for 5 consecutive days.
(§4) The animals are sacrificed on day 6. The ears are removed, with the dorsal and ventral surfaces being separated.
(§5) The tissues of the dorsal surface are immersed in Na EDTA (0.020 M) at 37° C. for 2 h.
(§6) After incubation, the epidermis is removed in the form of an intact sheet, fixed with acetone and rehydrated in PBS (phosphate buffer).
(§7) The Thy 1-2+ and Ia+ EDC (epidermal dendritic cells) are identified by indirect immunofluorescence double labeling.
(§8) In the case of each epidermal sheet, the number of cells per mm^2 is determined using the peripheral regions of the same surface.
The Thy 1.2+ EDC were identified by indirect immunofluorescence double labeling. The epidermal sheets were fixed with acetone and then rehydrated in PBS.
The tissues were labeled simultaneously, at 4° C. for 16 h, with mouse anti-Thy 1.2+ antibody which was diluted 1:100. The tissue samples were washed three times in PBS for 60 min and then incubated, at 37° C. for 60 min, either with goat antimouse antibody which was coupled to rhodamine and diluted 1:20, or with goat antirabbit antibody which was coupled to fluorescein (fluorescine and diluted 1:20 in PBS. The tissues were then washed in PBS before being mounted as previously described.
(§9) In the case of each epidermal sheet, the number of Ia+ Langerhans cells or Thy 1.2+ EDCs per square millimeter was determined by means of immunofluorescence, using a confocal Zeiss microscope which was equipped for this purpose, in four peripheral areas of the same surface. At least four animals were studied in each of the groups. The density of Ia+ Langerhans cells and Thy 1.2+ EDCs is shown for each measurement.

Ia+ Langerhans cells = assay: Ia+ Langerhans cell density after topical application to mouse ear; format: in vivo, C57-BL/6 mice; conditions: for Number of Ia+ cells per mm^2 of epidermis, batch 1 / Number of Ia+ cells per mm^2 of epidermis, batch 2 / Number of Ia+ cells per mm^2 of epidermis, batch 3 / Number of Ia+ cells per mm^2 of epidermis, batch 4 / Number of Ia+ cells per mm^2 of epidermis, Mean: C 57 BL/6 mice; for Number of Ia+ cells per mm^2 of epidermis, Mean: 4 batches; for Ia+ cells %: relative to PG controls
Description: as §1, §2, §3, §4, §5, §6, §7, §8
The EDC (epidermal dendritic cells) carrying the Ia+ marker were identified using an anti-Ia+ monoclonal antibody.
The epidermal sheets are fixed with acetone and then incubated, at 37° C. for 1 h, in the presence of the anti-Ia+ monoclonal antibody, which has been labeled by the indirect immunoperoxidase method (Kit).
After having been incubated at 37° C. for 10 minutes with a solution of aminoethylcarbazole, the preparation is washed with PBS.
as §9

A-Arg-Lys-Asp-Val-Tyr-NH2 (RKDVY; not fully specified (N-terminus, C-terminus)) [ETF-XV, A not specified for the tested sample; b149 names acetic acid-Arg-Lys-Asp-Val-Tyr-NH2]
Number of Thy 1.2+ cells per mm^2 of epidermis, batch 1 ([1]; dose 0.10 Nanog.): 160 cells per mm^2
Number of Thy 1.2+ cells per mm^2 of epidermis, batch 2 ([1]; dose 0.10 Nanog.): 158 cells per mm^2
Number of Thy 1.2+ cells per mm^2 of epidermis, batch 3 ([1]; dose 0.10 Nanog.): 160 cells per mm^2
Number of Thy 1.2+ cells per mm^2 of epidermis, batch 4 ([1]; dose 0.10 Nanog.): 170 cells per mm^2
Number of Thy 1.2+ cells per mm^2 of epidermis, Mean ([1]; dose 0.10 Nanog.): 162.00 cells per mm^2
Thy 1.2+ cells % T ([1]; dose 0.10 Nanog.): 84%
Number of Thy 1.2+ cells per mm^2 of epidermis, batch 1 ([1]; dose 0.50 Nanog.): 176 cells per mm^2
Number of Thy 1.2+ cells per mm^2 of epidermis, batch 2 ([1]; dose 0.50 Nanog.): 168 cells per mm^2
Number of Thy 1.2+ cells per mm^2 of epidermis, batch 3 ([1]; dose 0.50 Nanog.): 170 cells per mm^2
Number of Thy 1.2+ cells per mm^2 of epidermis, batch 4 ([1]; dose 0.50 Nanog.): 186 cells per mm^2
Number of Thy 1.2+ cells per mm^2 of epidermis, Mean ([1]; dose 0.50 Nanog.): 175.00 cells per mm^2
Thy 1.2+ cells % T ([1]; dose 0.50 Nanog.): 98%
Number of Thy 1.2+ cells per mm^2 of epidermis, batch 1 ([1]; dose 1.00 Nanog.): 198 cells per mm^2
Number of Thy 1.2+ cells per mm^2 of epidermis, batch 2 ([1]; dose 1.00 Nanog.): 180 cells per mm^2
Number of Thy 1.2+ cells per mm^2 of epidermis, batch 3 ([1]; dose 1.00 Nanog.): 188 cells per mm^2
Number of Thy 1.2+ cells per mm^2 of epidermis, batch 4 ([1]; dose 1.00 Nanog.): 199 cells per mm^2
Number of Thy 1.2+ cells per mm^2 of epidermis, Mean ([1]; dose 1.00 Nanog.): 191.25 cells per mm^2
Thy 1.2+ cells % T ([1]; dose 1.00 Nanog.): 117%
Number of Ia+ cells per mm^2 of epidermis, batch 1 (Ia+ Langerhans cells; dose 0.10 Nanog.): 315 cells per mm^2
Number of Ia+ cells per mm^2 of epidermis, batch 2 (Ia+ Langerhans cells; dose 0.10 Nanog.): 326 cells per mm^2
Number of Ia+ cells per mm^2 of epidermis, batch 3 (Ia+ Langerhans cells; dose 0.10 Nanog.): 320 cells per mm^2
Number of Ia+ cells per mm^2 of epidermis, batch 4 (Ia+ Langerhans cells; dose 0.10 Nanog.): 330 cells per mm^2
Number of Ia+ cells per mm^2 of epidermis, Mean (Ia+ Langerhans cells; dose 0.10 Nanog.): 322.75 cells per mm^2
Ia+ cells % (Ia+ Langerhans cells; dose 0.10 Nanog.): 215%
Number of Ia+ cells per mm^2 of epidermis, batch 1 (Ia+ Langerhans cells; dose 0.50 Nanog.): 305 cells per mm^2
Number of Ia+ cells per mm^2 of epidermis, batch 2 (Ia+ Langerhans cells; dose 0.50 Nanog.): 345 cells per mm^2
Number of Ia+ cells per mm^2 of epidermis, batch 3 (Ia+ Langerhans cells; dose 0.50 Nanog.): 330 cells per mm^2
Number of Ia+ cells per mm^2 of epidermis, batch 4 (Ia+ Langerhans cells; dose 0.50 Nanog.): 345 cells per mm^2
Number of Ia+ cells per mm^2 of epidermis, Mean (Ia+ Langerhans cells; dose 0.50 Nanog.): 331.25 cells per mm^2
Ia+ cells % (Ia+ Langerhans cells; dose 0.50 Nanog.): 223%
Number of Ia+ cells per mm^2 of epidermis, batch 1 (Ia+ Langerhans cells; dose 1.00 Nanog.): 348 cells per mm^2
Number of Ia+ cells per mm^2 of epidermis, batch 2 (Ia+ Langerhans cells; dose 1.00 Nanog.): 360 cells per mm^2
Number of Ia+ cells per mm^2 of epidermis, batch 3 (Ia+ Langerhans cells; dose 1.00 Nanog.): 348 cells per mm^2
Number of Ia+ cells per mm^2 of epidermis, batch 4 (Ia+ Langerhans cells; dose 1.00 Nanog.): 350 cells per mm^2
Number of Ia+ cells per mm^2 of epidermis, Mean (Ia+ Langerhans cells; dose 1.00 Nanog.): 351.50 cells per mm^2
Ia+ cells % (Ia+ Langerhans cells; dose 1.00 Nanog.): 243%
